In patent US20100305204A1, “COMPOSITION USEFUL FOR THE PREVENTION OF ADVERSE EFFECT DUE TO THE USE OF PPAR-GAMMA AGONISTS” (SIGMA-TAU INDUSTRIE FARMACEUTICHE RIUNITE S.P.A., priority 2007, published 2010):
Where “and” joins values, the source holds several entries; their conditions need not be identical. Equal values may be shown once.

Columns and labels:
IGF1 = assay: Serum levels of IGF1 in rosiglitazone-treated patients affected by osteoporosis
osteocalcine = assay: Serum levels of osteocalcine in rosiglitazone-treated patients affected by osteoporosis
[1] = Body weight (BW) of the patients
[2] = T1 versus T0, a month of wash-out, 6 patients
[3] = after 1-month rosiglitazone wash-out (T1), patients 1-6 individually and mean
[4] = after treatment with rosiglitazone 8 mg/day orally for 12 months (T0), patients 1-6 individually and mean

With `CN(CCOc1ccc(CC2SC(=O)NC2=O)cc1)c1ccccn1` (stereo not drawn) [rosiglitazone] the “Change of serum IGF1 after wash-out” value (IGF1; [2]) was “lightly incremented even if not significantly”, the “Serum level of IGF1, T1” value (IGF1; [3]) was 310000 pg/mL and 375000 pg/mL and 300000 pg/mL and 380000 pg/mL and 280000 pg/mL and 265000 pg/mL and the “Serum level of IGF1, T0” value (IGF1; [4]) was 300 ng/ml and 235 ng/ml and 260 ng/ml (2×) and 330 ng/ml and 270 ng/ml. For the same compound, the “Change of serum osteocalcine after wash-out” value (osteocalcine; [2]) was “lightly incremented even if not significantly”, the “Serum level of osteocalcine, T1” value (osteocalcine; [3]) was 0.0028 pg/mL and 0.0029 pg/mL and 0.003 pg/mL and 0.0027 pg/mL and 0.0026 pg/mL and the “Serum level of osteocalcine, T0” value (osteocalcine; [4]) was 0.0027 pg/mL and 0.003 pg/mL and 0.0031 pg/mL and 0.0023 pg/mL and 0.0022 pg/mL and 0.0026 pg/mL. The “Change of body weight (BW) after wash-out” value [1, 2] was “didn't demonstrate variations”, the “BW Body weight, T1” value [1, 3] was 98.9 and 102 and 109 and 94.6 and 96.8 and 97 and the “BW Body weight, T0” value [1, 4] was 99 and 102.5 and 108.9 and 94.5 and 97.3 and 97.2. The “Change of Total Body Water after wash-out” value [2] was “didn't demonstrate variations”, the “TBW Total Body Water, T1” value [3] was 50 and 50.2 and 53.5 and 48 and 50.8 and 49.9 and the “TBW Total Body Water, T0” value [4] was 50.1 and 50.3 and 53.6 and 48 and 50.9 and 49.8.
